Reference: paper PMC10497682, “Synthesis and cytotoxicity evaluation of novel 1,8-acridinedione derivatives bearing phthalimide moiety as potential antitumor agents” (Scientific Reports, 2023)
Converted amounts (≈) assume the structure as drawn.

How the values were obtained:
Type in all cases: cell-based
MDA-MB-231 cells = test: Morphological modifications under phase-contrast microscope, MDA-MB-231; settings: IC50 dose, 48 h, vs untreated control
Procedure: (§1) The present study aimed to investigate the in vitro effects of five synthetic compounds (8c, 8f, 8h, 8i, and 8L) on the morphological modifications of four different cancer cell lines (A431, A549, H460, and MDA-MB-231) compared with untreated control cells (Fig. 5). The cells were treated with the compounds at IC50 doses for 48 h, and the morphological changes were observed under a phase-contrast microscope.
(§2) All cells were treated with compounds (8c, 8f, 8h, 8i and 8L) at IC50 doses for 48 h as compared to untreated control cells.
(§3) The cell lines were obtained from American Type Culture Collection (ATCC). With the usage of the Thiazolyl Blue Tetrazolium Bromide (MTT) method, various concentrations of the compounds (8c, 8f, 8h, 8i, and 8L) were evaluated for their cytotoxicity against the HSF, H460, A431, A549, and MDA-MB-231 cell lines. […] 200 µL dimethyl sulfoxide (DMSO) was added to each well and shook again for 5 min at 150 rpm, and then the viability of the cells was calculated by measuring the optical density at 630 nm subtracted from optical density at 570 nm. The relative cell viability (%) was determined as the given formula: Therelativecellviability%=ODS/ODC×100 whereas ODS is the mean optical density of sample, ODC is the mean OD of control group. […]

[1] = system: breast cancer cells (MDA-MB-231); test: MTT cytotoxicity assay, MDA-MB-231
Procedure: (§4) The cell lines were obtained from American Type Culture Collection (ATCC). With the usage of the Thiazolyl Blue Tetrazolium Bromide (MTT) method, various concentrations of the compounds (8c, 8f, 8h, 8i, and 8L) were evaluated for their cytotoxicity against the HSF, H460, A431, A549, and MDA-MB-231 cell lines. In brief HSF, H460, A431, A549 and MDA-MB-231 cell lines cells (10 × 10^3) were cultured in 96 well plate for overnight at 37 °C, 5% CO2 and 88% humidity. The total volume of used DMEM supplemented medium and the synthesized compounds supernatant was 200 µL with final concentrations of 25, 50, 100, 150 and 200 µg/ml. The plate was incubated at 37 °C, 5% CO2 for 48 h. After incubation, debris and dead cells were removed by washing three times with fresh medium. […] 200 µL dimethyl sulfoxide (DMSO) was added to each well and shook again for 5 min at 150 rpm, and then the viability of the cells was calculated by measuring the optical density at 630 nm subtracted from optical density at 570 nm. The relative cell viability (%) was determined as the given formula: Therelativecellviability%=ODS/ODC×100 whereas ODS is the mean optical density of sample, ODC is the mean OD of control group. […] Tumor-selectivity index (TS value) was determined by dividing the mean IC50 against normal cells by the mean IC50 against tumor cells. […]

H460 cells = test: Morphological modifications under phase-contrast microscope, H460; settings: IC50 dose, 48 h, vs untreated control
Procedure: as §1, §2, §3

A549 cells = test: Morphological modifications under phase-contrast microscope, A549; settings: IC50 dose, 48 h, vs untreated control
Procedure: as §1, §2, §3

p53 = test: qRT-PCR mRNA expression of p53 in A431 cells; settings: IC50 concentration, 2 days, fold vs untreated control
Procedure: (§5) In this study, the impact of potent antitumor compounds (8c, 8f, 8h, 8i, and 8L) on the expression levels of four tumor regulating genes, namely Topoisomerase II beta (TOP2B), mitogen-activated protein kinase (MAP K) (p38), tumor protein interacted with the mouse double minute 2 homolog (p53), and Epidermal growth factor receptor (EGFR), was investigated in skin cancer cells (A431). Evaluation the relative changes in mRNA expression levels of four key genes by performing quantitative real-time PCR (qRT-PCR) before and after treatment for 2 days with IC50 concentrations of compounds (8c, 8f, 8h, 8i, and 8L). Total RNA was extracted from the cells using the Gene JET RNA Purification Kit (Thermo Scientific, USA), followed by cDNA synthesis using the cDNA Synthesis Kit (Thermo Scientific, USA) protocol. SYBR green kit and specific primers (Forward/Reverse) were used for qRT-PCR: 5′-[…]-3’/5’-[…]-3′ for p38, 5′-[…]-3′/5′-[…]-3′ for p53, 5’-[…]-3’/5’-[…]-3’ for TOP2B, and 5’-[…]-3’/5’-[…]-3’ for EGFR. The expression levels of the tested genes were determined by using the 2^−ΔΔCT equation to assess any changes in upregulation and/or downregulation of gene expression.

lung cancer cells (H460) = test: MTT cytotoxicity assay, H460; settings: for selectivity index (SI): mean IC50 against normal cells (HSF) divided by IC50 against H460
Procedure: (§6) The cell lines were obtained from American Type Culture Collection (ATCC). With the usage of the Thiazolyl Blue Tetrazolium Bromide (MTT) method, various concentrations of the compounds (8c, 8f, 8h, 8i, and 8L) were evaluated for their cytotoxicity against the HSF, H460, A431, A549, and MDA-MB-231 cell lines. In brief HSF, H460, A431, A549 and MDA-MB-231 cell lines cells (10 × 10^3) were cultured in 96 well plate for overnight at 37 °C, 5% CO2 and 88% humidity. The total volume of used DMEM supplemented medium and the synthesized compounds supernatant was 200 µL with final concentrations of 25, 50, 100, 150 and 200 µg/ml. The plate was incubated at 37 °C, 5% CO2 for 48 h. After incubation, debris and dead cells were removed by washing three times with fresh medium. […] of MTT solution (5 mg/ml of MTT in PBS buffer) was added to each well and shook for 5 min at 150 rpm to thoroughly mix the MTT into the media. The cells were incubated at 37 °C and 5% CO2 for 3–5 h to metabolize MTT by viable cells. 200 µL dimethyl sulfoxide (DMSO) was added to each well and shook again for 5 min at 150 rpm, and then the viability of the cells was calculated by measuring the optical density at 630 nm subtracted from optical density at 570 nm. The relative cell viability (%) was determined as the given formula: Therelativecellviability%=ODS/ODC×100 whereas ODS is the mean optical density of sample, ODC is the mean OD of control group. […] Tumor-selectivity index (TS value) was determined by dividing the mean IC50 against normal cells by the mean IC50 against tumor cells. Thus obtained TS values seem to reflect the in vivo antitumor activity even though these cells were different types of cells (epithelial oral squamous cell carcinoma cell lines versus mesenchymal normal oral cells).

skin cancer cells (A431) = test: MTT cytotoxicity assay, A431; settings: for selectivity index (SI): mean IC50 against normal cells (HSF) divided by IC50 against A431
Procedure: as §6

A431 cells = test: Morphological modifications under phase-contrast microscope, A431; settings: IC50 dose, 48 h, vs untreated control
Procedure: as §1, §2, §3

p38 = test: qRT-PCR mRNA expression of p38 in A431 cells; settings: IC50 concentration, 2 days, fold vs untreated control
Procedure: as §5

EGFR = test: qRT-PCR mRNA expression of EGFR in A431 cells; settings: IC50 concentration, 2 days, fold vs untreated control
Procedure: as §5

TOP2B = test: qRT-PCR mRNA expression of TOP2B in A431 cells; settings: IC50 concentration, 2 days, fold vs untreated control
Procedure: as §5

lung cancer cells (A549) = test: MTT cytotoxicity assay, A549
Procedure: as §4

SMILES: CC1(C)CC(=O)C2=C(C1)N(CCOC(=O)CN1C(=O)c3ccccc3C1=O)C1=C(C(=O)CC(C)(C)C1)C2c1ccc2c(c1)OCO2 [Compound 8L, 2-(9-(benzo[d][1,3]dioxol-5-yl)-3,3,6,6-tetramethyl-1,8-dioxo-2,3,4,5,6,7,8,9-octahydroacridin-10(1H)-yl)ethyl 2-(1,3-dioxoisoindolin-2-yl)acetate]
- morphological modifications (MDA-MB-231 cells): significant cell damage and alterations in cell morphology
- IC50 ([1]; Homo sapiens, MDA-MB-231 cells, MTT, 48 h, mean ± SEM): 27.7 ± 2.7 µg/mL (≈ 44.3 µM)
- selectivity index (SI) ([1]; mean IC50 against normal cells (HSF) divided by IC50 against MDA-MB-231): 4.4

SMILES: CC1(C)CC(=O)C2=C(C1)N(CCOC(=O)CN1C(=O)c3ccccc3C1=O)C1=C(C(=O)CC(C)(C)C1)C2c1ccc(F)cc1 [Compound 8c, 2-(9-(4-fluorophenyl)-3,3,6,6-tetramethyl-1,8-dioxo-2,3,4,5,6,7,8,9-octahydroacridin-10(1H)-yl) ethyl 2-(1,3-dioxoisoindolin-2-yl) acetate]
- morphological modifications (H460 cells): noticeable cell damage and alterations in the morphology
- morphological modifications (A549 cells): significant cell damage and alterations in the morphology

SMILES: CC1(C)CC(=O)C2=C(C1)N(CCOC(=O)CN1C(=O)c3ccccc3C1=O)C1=C(C(=O)CC(C)(C)C1)C2c1ccc(-c2ccccc2)cc1 [Compound 8f, 2-(9-([1,1'-biphenyl]-4-yl)-3,3,6,6-tetramethyl-1,8-dioxo-2,3,4,5,6,7,8,9-octahydroacridin-10(1H)-yl) ethyl 2-(1,3-dioxoisoindolin-2-yl) acetate]
- relative change in mRNA expression level of p53 (p53): highest relative change
- IC50 (lung cancer cells (H460); Homo sapiens, NCI-H460, H460 cells, MTT, 48 h, mean ± SEM): 24.6 ± 3.4 µg/mL
- selectivity index (SI) (lung cancer cells (H460)): 7.7
- IC50 (skin cancer cells (A431); Homo sapiens, A-431, A431 cells, MTT, 48 h, mean ± SEM): 11.9 ± 3.3 µg/mL
- selectivity index (SI) (skin cancer cells (A431)): 15.9
- morphological modifications (A431 cells): significant cell damage and alteration in the morphology
- morphological modifications (H460 cells): noticeable cell damage and alterations in the morphology
- morphological modifications (MDA-MB-231 cells): significant cell damage and alterations in cell morphology
- morphological modifications (A549 cells): significant cell damage and alterations in the morphology
- relative change in mRNA expression level of p38 (p38): highest relative change
- relative change in mRNA expression level of EGFR (EGFR): lowest relative change
- relative change in mRNA expression level of TOP2B (TOP2B): lowest relative change

SMILES: COc1ccc(C2C3=C(CC(C)(C)CC3=O)N(CCOC(=O)CN3C(=O)c4ccccc4C3=O)C3=C2C(=O)CC(C)(C)C3)cc1OC [Compound 8h, 2-(9-(3,4-dimethoxyphenyl)-3,3,6,6-tetramethyl-1,8-dioxo-2,3,4,5,6,7,8,9-octahydroacridin-10(1H)-yl) ethyl 2-(1,3-dioxoisoindolin-2-yl) acetate]
- selectivity index (SI) (lung cancer cells (H460)): 3.5
- selectivity index (SI) (skin cancer cells (A431)): 4.5
- relative change in mRNA expression level of EGFR (EGFR): lowest relative change
- relative change in mRNA expression level of TOP2B (TOP2B): lowest relative change

SMILES: COc1ccc(C2C3=C(CC(C)(C)CC3=O)N(CCOC(=O)CN3C(=O)c4ccccc4C3=O)C3=C2C(=O)CC(C)(C)C3)cc1 [Compound 8i, 2-(9-(4-methoxyphenyl)-3,3,6,6-tetramethyl-1,8-dioxo-2,3,4,5,6,7,8,9-octahydroacridin-10(1H)-yl) ethyl 2-(1,3-dioxoisoindolin-2-yl) acetate]
- morphological modifications (A431 cells): significant cell damage and alteration in the morphology
- IC50 (lung cancer cells (A549); Homo sapiens, A549 cells, MTT, 48 h, mean ± SEM): 37.4 ± 4.5 µg/mL
- selectivity index (SI) (lung cancer cells (A549); mean IC50 against normal cells (HSF) divided by IC50 against A549): 4.0
